The values that follow are results of earlier work, collected in patent US5545620A, “Synthetic fibronectin fragments as inhibitors of retroviral infection” (priority 1994, dated 1996).

This data set has as its system cell adhesion. The note with it: cited from earlier work.
With “FN-6: fibronectin fragment (1961-1985) SEQ ID NO. 6, restricted to isoforms containing the type IIIcs region (DELPQLVTLPHPNLHGPEILDVPST)”, the “promotion of cell adhesion” value is reported as “promotes cell adhesion by an α4β1 integrin-dependent mechanism”.

In the case of KNNQKSEPLIGRKKT [FN-2], the “promotion of cell adhesion” value is “promote cell adhesion”.

“YEKPGSPPREWPRPRPGV (YEKPGSPPREVVPRPRPGV) [FN-1]”: the “promotion of cell adhesion” value is given as “promote cell adhesion”.
